In patent US6891057B2, “Compounds for generating chemiluminescence with a peroxidase” (Lumigen, Inc., priority 1997, dated 2005):

Target: T1, horseradish peroxidase (HRP) (Armoracia rusticana, UniProt P00433)
T1 sequence (P00433 31-338 limits assumed): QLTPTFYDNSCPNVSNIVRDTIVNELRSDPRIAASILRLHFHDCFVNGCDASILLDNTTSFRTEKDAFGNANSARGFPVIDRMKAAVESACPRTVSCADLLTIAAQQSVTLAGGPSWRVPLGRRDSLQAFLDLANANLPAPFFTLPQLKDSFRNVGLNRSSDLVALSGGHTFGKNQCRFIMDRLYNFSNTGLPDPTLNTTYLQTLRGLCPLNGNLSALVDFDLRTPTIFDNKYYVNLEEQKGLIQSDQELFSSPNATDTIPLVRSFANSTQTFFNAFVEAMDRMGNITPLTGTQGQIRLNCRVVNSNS
Test: Chemiluminescent detection of HRP: reaction of compound with peroxidase and peroxide
Format: biochemical
Conditions: for time to maximum chemiluminescence intensity: 0.01 M tris pH 8.0, 0.5 mM urea peroxide, 0.1 mM p-phenylphenol, 1 mM EDTA, 0.025% Tween 20, 5×10^−5 M acridan, HRP 3.5×10^−16 to 1.4×10^−15 moles
Procedure: FIG. 1 is a graph relating the amount of HRP to the chemiluminescence intensity at 15 min emitted by 100 μL of a reagent described in Example 20 containing acridan phosphate 5 triggered at room temperature. Chemiluminescence emission was initiated by addition of 10 μL of solutions of HRP containing between 1.4×10^−15 and 1.4×10^−19 moles of enzyme to 100 μL of the reagent comprising 0.055 M tris buffer, pH 8.6, 0.25 mM urea peroxide, 0.05 mM p-phenylphenol, 0.5 mM EDTA, 0.0125% Tween 20 and 3.3×10^−4 M acridan 5 in the wells of a black microplate. The term S-B refers to the chemiluminescence signal (S) in Relative Light Units (RLU) in the presence of HRP corrected for background chemiluminescence (B) in the absence of HRP.
FIG. 2 is a graph relating the amount of HRP to the chemiluminescence intensity at 15 min emitted by 100 μL of a reagent described in Example 21 containing acridan phosphate 13 triggered at room temperature. Chemiluminescence emission was initiated by addition of 10 μL of solutions of HRP containing between 1.4×10^−15 and 1.4×10^−19 moles of enzyme to 100 μL of a reagent comprising 0.055 M tris buffer, pH 8.6, 0.25 mM urea peroxide, 0.05 mM p-phenylphenol, 0.5 mM EDTA, 0.0125% Tween 20 and 3.3×10^−4 M acridan 13 in a black microplate.
FIG. 3 is a graph showing the time profile of chemiluminescence resulting from reaction of 1.4×10^−15 moles of HRP at 25° C. with 100 μL of the reagent containing acridan 5 described in Example 20.
(§1) FIG. 4 is a graph relating the amount of HRP to the maximum chemiluminescence intensity at 2 min emitted by 100 μL of a reagent containing acridan 37 triggered at room temperature. Chemiluminescence emission was initiated by addition of 10 μL of solutions of HRP containing between 1.4×10^−14 to 1.4×10^−19 moles to 100 μL of reagent composition comprising 0.01 M tris buffer, pH 8.0, 0.5 mM urea peroxide, 0.1 mM p-phenylphenol, 1 mM EDTA, 0.025% Tween 20 and 5×10^−5 M acridan 37.
FIG. 5 is a graph showing the time profile of chemiluminescence resulting from reaction of 1.4×10^−15 moles of HRP at 25° C. with 40 μL of a reagent comprising 0.01 M tris buffer, pH 8.0, 0.5 mM urea peroxide, 0.1 mM p-phenylphenol, 1 mM EDTA, 0.025% Tween 20 and 5×10^−5 M acridan 38.
as §1, with “FIG. 6” for “FIG. 4”, “at 30” for “at 2”, “acridan 39” for “acridan 37”, “between 1.4×10^−15” for “between 1.4×10^−14”, “to 1.4×10^−20” for “to 1.4×10^−19”, “acridan 39.” for “acridan 37.”
FIG. 7 is a graph showing the time profile of chemiluminescence resulting from reaction of 3.5×10^−16 moles of HRP at 25° C. with 100 μL of a reagent comprising 0.01 M tris buffer, pH 8.0, 0.5 mM urea peroxide, 0.1 mM p-phenylphenol, 1 mM EDTA, 0.025% Tween 20 and 5×10^−5 M acridan 50.
FIG. 8 is a graph relating the amount of HRP to the maximum chemiluminescence intensity at 15 min emitted by 100 μL of a reagent containing acridan 43 triggered at room temperature. Chemiluminescence emission was initiated by addition of 10 μL of solutions of HRP containing between 1.4×10^−15 to 1.4×10^−19 moles to 100 μL of a reagent composition comprising 0.055 M tris buffer, pH 8.6, 0.25 mM urea peroxide, 0.05 mM p-phenylphenol, 0.5 mM EDTA, 0.0125% Tween 20, 1 mM CTAB and 6.6×10^−4 M acridan 43.
Reagent compositions comprising 0.055 M tris buffer, pH 8.6, 0.25 mM urea peroxide, 0.05 mM p-phenylphenol, 0.5 mM EDTA, 0.0125% Tween 20, 1 mM CTAB and 3.3×10^−4 M compound 46 alone or with 50 μM DBA were tested for production of chemiluminescence by reacting a 100 μL aliquot with 3.5×10^−15 moles of HRP. […]

Row | Structure (SMILES) | production of chemiluminescence on reaction with a peroxidase and a peroxide | time to maximum chemiluminescence intensity [min] | increase of light intensity when CTAB was included in the reaction mixture (reaction with a peroxidase and a peroxide, with vs without CTAB)
1 | CC(=O)OC(Sc1ccccc1)=C1c2ccccc2N(C)c2ccccc21 [Compound 40] | Light production ensued upon mixing | 7 | 
2 | CC(=O)OC(Oc1ccccc1)=C1c2ccccc2N(C)c2ccccc21 [Compound 39] | Light production ensued upon mixing | 30 | 
3 | COC(Sc1ccccc1)=C1c2ccccc2N(C)c2ccccc21 [Compound 50] | Light production ensued upon mixing | 7 | 
4 | CCOP(=O)(OCC)OC(Oc1ccccc1)=C1c2ccccc2N(C)c2ccccc21 [Compound 37] | Light production ensued upon mixing |  | 
5 | C/C(=C(/OP(=O)([O-])[O-])Sc1ccccc1)c1ccc2cc([O-])ccc2c1.[Na+].[Na+].[Na+] [Compound 43] |  |  | increased more than ten-fold
6 | CCOP(=O)(OCC)OC(Sc1ccccc1)=C1c2ccccc2N(C)c2ccccc21 [Compound 38] | Light production ensued upon mixing | 1 | 
